Reference: PubChem BioAssay AID2060498 (Molecular Pharmacology Branch, DTP, NCI, 2025)

System: 171881-019-R-J1-PDC tumor spheroids, viability
Assay: Anticancer human tumor 171881-019-R-J1-PDC patient-derived invasive breast carcinoma cell line growth inhibition [GQUAD]
Details: spheroids with HUVEC and MSC; for IC50: curve of first compound; for viability, T/C: stronger effect = lower value
Summary of the method: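 Viability of tumor cells grown as complex spheroids with endothelial and stromal cells, exposed to drug combinations. Top concentration at or near clinical Cmax (else 10 microM), diluted in half-log increments.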

[1] = second compound 0.0316 µM, first compound 0.0316 µM
[2] = second compound 0.0316 µM, first compound 0.1 µM
[3] = second compound 0.0316 µM, first compound 0.316 µM
[4] = second compound 0.0316 µM, first compound 1 µM
[5] = second compound 0.0316 µM, first compound 3.16 µM
[6] = second compound 0.0316 µM, first compound 10 µM
[7] = second compound 0.1 µM, first compound 0.0316 µM
[8] = second compound 0.1 µM, first compound 0.1 µM
[9] = second compound 0.1 µM, first compound 0.316 µM
[10] = second compound 0.1 µM, first compound 1 µM
[11] = second compound 0.1 µM, first compound 3.16 µM
[12] = second compound 0.1 µM, first compound 10 µM
[13] = second compound 0.316 µM, first compound 0.0316 µM
[14] = second compound 0.316 µM, first compound 0.1 µM
[15] = second compound 0.316 µM, first compound 0.316 µM
[16] = second compound 0.316 µM, first compound 1 µM
[17] = second compound 0.316 µM, first compound 3.16 µM
[18] = second compound 0.316 µM, first compound 10 µM
[19] = second compound 1 µM, first compound 0.0316 µM
[20] = second compound 1 µM, first compound 0.1 µM
[21] = second compound 1 µM, first compound 0.316 µM
[22] = second compound 1 µM, first compound 1 µM
[23] = second compound 1 µM, first compound 3.16 µM
[24] = second compound 1 µM, first compound 10 µM
[25] = second compound 3.16 µM, first compound 0.0316 µM
[26] = second compound 3.16 µM, first compound 0.1 µM
[27] = second compound 3.16 µM, first compound 0.316 µM
[28] = second compound 3.16 µM, first compound 1 µM
[29] = second compound 3.16 µM, first compound 3.16 µM
[30] = second compound 3.16 µM, first compound 10 µM
[31] = second compound 10 µM, first compound 0.0316 µM
[32] = second compound 10 µM, first compound 0.1 µM
[33] = second compound 10 µM, first compound 0.316 µM
[34] = second compound 10 µM, first compound 1 µM
[35] = second compound 10 µM, first compound 3.16 µM
[36] = second compound 10 µM, first compound 10 µM
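Throughout, for viability, T/C: 100% = DMSO vehicle control viability.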

## CC(C)n1c(=O)n(C)c2cnc3cc(F)c(-c4ccc(OCCCN5CCCCC5)nc4)cc3c21 + Cc1[nH]c2ccc(F)cc2c1-c1nc2c3cccnc3c3ncccc3c2[nH]1
Second compound 0.0316 µM
  IC50: 3360 nM
Second compound 0.1 µM
  IC50: 3350 nM
Second compound 0.316 µM
  IC50: 2420 nM
Second compound 1 µM
  IC50: 2310 nM
Second compound 3.16 µM
  IC50: < 31.6 nM
Second compound 10 µM
  IC50: 362 nM
[1]
  viability, T/C: 103%
[2]
  viability, T/C: 94.3%
[3]
  viability, T/C: 95.4%
[4]
  viability, T/C: 84.7%
[5]
  viability, T/C: 51.1%
[6]
  viability, T/C: 22.8%
[7]
  viability, T/C: 97.3%
[8]
  viability, T/C: 104%
[9]
  viability, T/C: 93.4%
[10]
  viability, T/C: 79.8%
[11]
  viability, T/C: 51.7%
[12]
  viability, T/C: 23.8%
[13]
  viability, T/C: 95.9%
[14]
  viability, T/C: 93.2%
[15]
  viability, T/C: 64.5%
[16]
  viability, T/C: 67.8%
[17]
  viability, T/C: 50%
[18]
  viability, T/C: 21.9%
[19]
  viability, T/C: 89.7%
[20]
  viability, T/C: 75.5%
[21]
  viability, T/C: 84.8%
[22]
  viability, T/C: 68%
[23]
  viability, T/C: 43.2%
[24]
  viability, T/C: 26.9%
[25]
  viability, T/C: 28.7%
[26]
  viability, T/C: 29.2%
[27]
  viability, T/C: 23.4%
[28]
  viability, T/C: 23.3%
[29]
  viability, T/C: 19.1%
[30]
  viability, T/C: 12%
[31]
  viability, T/C: 65.7%
[32]
  viability, T/C: 49.8%
[33]
  viability, T/C: 52.4%
[34]
  viability, T/C: 43.4%
[35]
  viability, T/C: 34.3%
[36]
  viability, T/C: 16.5%

## CC1COCCN1c1cc(C2(O)CC3CCC(C2)O3)c2cnn(-c3ccn[nH]3)c2n1 (stereo not drawn) + Cc1[nH]c2ccc(F)cc2c1-c1nc2c3cccnc3c3ncccc3c2[nH]1
Second compound 0.0316 µM
  IC50: 34.5 nM
Second compound 0.1 µM
  IC50: 38.1 nM
Second compound 0.316 µM
  IC50: 33.8 nM
Second compound 1 µM
  IC50: < 31.6 nM
Second compound 3.16 µM
  IC50: < 31.6 nM
Second compound 10 µM
  IC50: < 31.6 nM
[1]
  viability, T/C: 52.8%
[2]
  viability, T/C: 20.5%
[3]
  viability, T/C: 10.3%
[4]
  viability, T/C: 5.52%
[5]
  viability, T/C: 4.37%
[6]
  viability, T/C: 4.08%
[7]
  viability, T/C: 55.6%
[8]
  viability, T/C: 20.6%
[9]
  viability, T/C: 9.69%
[10]
  viability, T/C: 5.6%
[11]
  viability, T/C: 3.81%
[12]
  viability, T/C: 3.56%
[13]
  viability, T/C: 52.1%
[14]
  viability, T/C: 20.3%
[15]
  viability, T/C: 9.82%
[16]
  viability, T/C: 5.18%
[17]
  viability, T/C: 4.67%
[18]
  viability, T/C: 3.78%
[19]
  viability, T/C: 36.9%
[20]
  viability, T/C: 15.5%
[21]
  viability, T/C: 9.46%
[22]
  viability, T/C: 5.53%
[23]
  viability, T/C: 5.14%
[24]
  viability, T/C: 3.53%
[25]
  viability, T/C: 15.7%
[26]
  viability, T/C: 10.5%
[27]
  viability, T/C: 6.92%
[28]
  viability, T/C: 4.31%
[29]
  viability, T/C: 4.06%
[30]
  viability, T/C: 1.96%
[31]
  viability, T/C: 14.8%
[32]
  viability, T/C: 12.1%
[33]
  viability, T/C: 7.38%
[34]
  viability, T/C: 5.1%
[35]
  viability, T/C: 4.66%
[36]
  viability, T/C: 3.28%

## CC1COCCN1c1cc(C2(S(C)(=N)=O)CC2)nc(-c2ccnc3[nH]ccc23)n1 (stereo not drawn) + Cc1[nH]c2ccc(F)cc2c1-c1nc2c3cccnc3c3ncccc3c2[nH]1
Second compound 0.0316 µM
  IC50: 1170 nM
Second compound 0.1 µM
  IC50: 1130 nM
Second compound 0.316 µM
  IC50: 1130 nM
Second compound 1 µM
  IC50: 749 nM
Second compound 3.16 µM
  IC50: < 31.6 nM
Second compound 10 µM
  IC50: < 31.6 nM
[1]
  viability, T/C: 97.5%
[2]
  viability, T/C: 97%
[3]
  viability, T/C: 87.4%
[4]
  viability, T/C: 55.4%
[5]
  viability, T/C: 18.6%
[6]
  viability, T/C: 9.09%
[7]
  viability, T/C: 103%
[8]
  viability, T/C: 100%
[9]
  viability, T/C: 87.7%
[10]
  viability, T/C: 53.6%
[11]
  viability, T/C: 21.1%
[12]
  viability, T/C: 10.5%
[13]
  viability, T/C: 97.2%
[14]
  viability, T/C: 75.4%
[15]
  viability, T/C: 86.2%
[16]
  viability, T/C: 51.6%
[17]
  viability, T/C: 21.9%
[18]
  viability, T/C: 10.2%
[19]
  viability, T/C: 78.2%
[20]
  viability, T/C: 76.6%
[21]
  viability, T/C: 75.6%
[22]
  viability, T/C: 41%
[23]
  viability, T/C: 18.9%
[24]
  viability, T/C: 9.88%
[25]
  viability, T/C: 21.5%
[26]
  viability, T/C: 15.3%
[27]
  viability, T/C: 17.2%
[28]
  viability, T/C: 13.9%
[29]
  viability, T/C: 10.2%
[30]
  viability, T/C: 6.81%
[31]
  viability, T/C: 46%
[32]
  viability, T/C: 49.4%
[33]
  viability, T/C: 36.5%
[34]
  viability, T/C: 22%
[35]
  viability, T/C: 14.5%
[36]
  viability, T/C: 8.3%

## COc1ccc([C@@H](O)c2cc(-c3ncnc4cc(N5CCOCC5)ccc34)c(F)cc2Cl)nn1 + Cc1[nH]c2ccc(F)cc2c1-c1nc2c3cccnc3c3ncccc3c2[nH]1
Second compound 0.0316 µM
  IC50: 740 nM
Second compound 0.1 µM
  IC50: 756 nM
Second compound 0.316 µM
  IC50: 573 nM
Second compound 1 µM
  IC50: 429 nM
Second compound 3.16 µM
  IC50: < 31.6 nM
Second compound 10 µM
  IC50: < 31.6 nM
[1]
  viability, T/C: 107%
[2]
  viability, T/C: 81.3%
[3]
  viability, T/C: 74.5%
[4]
  viability, T/C: 45%
[5]
  viability, T/C: 14.7%
[6]
  viability, T/C: 5.38%
[7]
  viability, T/C: 87.2%
[8]
  viability, T/C: 84.5%
[9]
  viability, T/C: 70.1%
[10]
  viability, T/C: 44.6%
[11]
  viability, T/C: 14%
[12]
  viability, T/C: 5.6%
[13]
  viability, T/C: 85.6%
[14]
  viability, T/C: 90.2%
[15]
  viability, T/C: 56.5%
[16]
  viability, T/C: 41%
[17]
  viability, T/C: 15.5%
[18]
  viability, T/C: 5.95%
[19]
  viability, T/C: 94.2%
[20]
  viability, T/C: 67%
[21]
  viability, T/C: 64.4%
[22]
  viability, T/C: 32.3%
[23]
  viability, T/C: 12.2%
[24]
  viability, T/C: 6.67%
[25]
  viability, T/C: 28.9%
[26]
  viability, T/C: 15.3%
[27]
  viability, T/C: 14.5%
[28]
  viability, T/C: 9.07%
[29]
  viability, T/C: 8.31%
[30]
  viability, T/C: 4.66%
[31]
  viability, T/C: 37.8%
[32]
  viability, T/C: 45.4%
[33]
  viability, T/C: 26.6%
[34]
  viability, T/C: 17.3%
[35]
  viability, T/C: 9.52%
[36]
  viability, T/C: 5.39%
